The test system of experiment [1] is lethally-irradiated female B6D2F1 mice. Briefly: Survival of lethally-irradiated mice (10 Gy total body irradiation). Format: in vivo. As to conditions: groups of 12 animals. The protocol:
Treatment of ionizing radiation exposure. The effect of selected F1Cs on survival of lethally-irradiated female B6D2F1 mice were compared to control animals treated with vehicle alone. The animals were exposed to 10 Gy of total body irradiation at 2.5 Gy/min using a ^137Cs source. […] For Group 4, test article was administered as a 50 μL volume, by intramuscular injection for three consecutive days. The formulation was a suspension containing 0.1% w/v carboxymethyl-cellulose, 0.9% w/v sodium chloride and 0.05% v/v phenol. The formulations were agitated to uniformly resuspend the F1C before syringing, and injected into animals within a few minutes of drawing into the syringe to prevent settling in the syringe.
The groups of animals were treated as follows.
The number of surviving animals is shown for day 6, 7, 12 and 21.

The test system of a further experiment is female BALB/cByJ mice. Briefly: Delayed type hypersensitivity (DTH) response to topical oxazolone challenge, differential ear thickness. Format: in vivo. As to conditions: 24 hours after oxazolone challenge; vehicle alone 0.225 mm.
Setting [2] is: 0.6 mg i.m. daily for 3 consecutive days after 10 Gy.
The mark [3] stands for this setting: 0.6 mg s.c. daily for 3 consecutive days, first dose 2 to 4 hours after 10 Gy.
Where [4] appears, read: 3.0 mg s.c. daily for 3 consecutive days after 10 Gy.

Description for female BALB/cByJ mice: Modulation of delayed type hypersensitivity. The capacity of F1Cs to modulate delayed type hypersensitivity (DTH) is determined in mice. Groups of five female BALB/cByJ mice (20-25 grams) are anesthetized and 100 μL of a 3% solution of oxazolone is applied on day 0 to the shaved abdomen and dried. Seven days later, on day 7, the mice are challenged by applying 5 μL of oxazolone topically to each side of the right ear. The F1C (at about 20-100 mg/mL) in vehicle is administered by subcutaneous injection (2 mg/day) one time on day 6, 24 hours before the oxazolone challenge. The vehicle as a non-aqueous suspension of the F1C in, e.g., 2% benzyl alcohol w/v, 0.1% Brij 96 w/v and equal volumes of PEG 300 and propylene glycol.
Dexamethasone in saline (0.2 mg/mL) is administered daily for 9 days (day −1 to 7), first dose 24 hours before sensitization, last dose at challenge by subcutaneous injection (0.01 mg/dose, 50 μL/injection). On Day 8, 24 hours following the oxazolone challenge, both the right and left ear thicknesses are measured using a micrometer caliper and the differences are determined. The differential ear thickness is measured as an indicator of the DTH response to topical oxazolone challenge. The DTH response is expressed as the difference in the thickness (mm) between the right and the left ears for each animal.

Take `C[C@]12CC[C@H]3[C@@H](CC=C4C[C@@H](O)CC[C@@]43C)[C@@H]1CC[C@@H]2O` [3β,17β-dihydroxyandrost-5-ene]: in experiment [1] (setting [2]), the “number of surviving animals, day 6” value stood at 12; the “number of surviving animals, day 7” value is on record as 12; the “number of surviving animals, day 12” value was 11; the “number of surviving animals, day 21” value was determined as 9. In addition, in experiment [1] (setting [3]), the “number of surviving animals, day 6” value was found to be 12; the “number of surviving animals, day 7” value is 11; the “number of surviving animals, day 12” value amounted to 10; the “number of surviving animals, day 21” value is reported as 7. Moreover, in experiment [1] (setting [4]), the “number of surviving animals, day 6” value is given as 12; the “number of surviving animals, day 7” value turned out to be 12; the “number of surviving animals, day 12” value is listed as 9; the “number of surviving animals, day 21” value came out at 7.

For the compound `C[C@]12CC[C@H]3[C@@H](CC=C4C[C@@H](O)CC[C@@]43C)[C@@H]1CC[C@@H]2N` [3β-hydroxy-17β-aminoandrost-5-ene], in experiment [1] (setting [3]), the “number of surviving animals, day 6” value is given as 12; the “number of surviving animals, day 7” value came out at 12; the “number of surviving animals, day 12” value is 12; the “number of surviving animals, day 21” value worked out at 11.

For `O=P1(N(CCCl)CCCl)NCCCO1` (stereo not drawn) [cyclophosphamide], in the experiment with female BALB/cByJ mice, the “DTH response (differential ear thickness, right minus left ear)” value was found to be 0.092 mm.

`C[C@@H]1C[C@H]2[C@@H]3CCC4=CC(=O)C=C[C@]4(C)[C@@]3(F)[C@@H](O)C[C@]2(C)[C@@]1(O)C(=O)CO` [dexamethasone]: the “DTH response (differential ear thickness, right minus left ear)” value in the experiment with female BALB/cByJ mice is 0.144 mm.

Values taken from patent US7547687B2, “Therapeutic treatment methods” (priority 2002, dated 2009).
